Assay results: patent EP0565593B1, “REDUCING PESTICIDAL INTERACTIONS IN CROPS” (priority 1990, dated 1992)
Where two headings read alike, the source gives them in different places.

Legend:
Shattercane (SHCA) = assay type: in vivo; details: […]
Corn [1] = details: […], PPI
Velvetleaf (VELE) [2] = assay type: in vivo, Abutilon theophrasti; details: […]
Giant foxtail (GIFT) = experiment: whole plant or invertebrate; assay type: in vivo; details: […], PPI
Velvetleaf (VELE) [3] = experiment: whole plant or invertebrate; assay type: in vivo, Abutilon theophrasti; details: […], PPI
Corn [4] = details: […]
[5] = observed 9 days later (Table 29)
[6] = observed 9 days later (Table 30)
[7] = observed 8 days later (Table 32)
[8] = observed 8 days later (Table 33)

Structure (SMILES) | % Inhibition SHCA (Shattercane (SHCA); [5]) [%] | % Inhibition SHCA (Shattercane (SHCA); [6]) [%] | % Inhibition Corn (Corn [1]; 13 days after PPI (Table 31)) [%] | % Inhibition VELE (Velvetleaf (VELE) [2]; [5]) [%] | % Inhibition VELE (Velvetleaf (VELE) [2]; [6]) [%] | % Inhibition GIFT (Giant foxtail (GIFT); 13 days after PPI (Table 31)) [%] | % Inhibition VELE (Velvetleaf (VELE) [3]; 13 days after PPI (Table 31)) [%] | % Inhibition Corn (Corn [4]; [5]) [%] | % Inhibition Corn (Corn [4]; [6]) [%] | % Inhibition SHCA (Shattercane (SHCA); [7]) [%] | % Inhibition SHCA (Shattercane (SHCA); [8]) [%] | % Inhibition Corn (Corn [1]; 14 days after PPI (Table 34)) [%] | % Inhibition VELE (Velvetleaf (VELE) [2]; [7]) [%] | % Inhibition VELE (Velvetleaf (VELE) [2]; [8]) [%] | % Inhibition GIFT (Giant foxtail (GIFT); 14 days after PPI (Table 34)) [%] | % Inhibition VELE (Velvetleaf (VELE) [3]; 14 days after PPI (Table 34)) [%] | % Inhibition Corn (Corn [4]; [7]) [%] | % Inhibition Corn (Corn [4]; [8]) [%]
CC(C)CC1c2ccccc2CCN1C(=O)C(Cl)Cl (stereo not drawn) [compound 41] | 80 | 30 | 60 | 90 | 70 | 90 | 80 | 25 | 45 | – | – | – | – | – | – | – | – | –
O=C(O)COC(c1ccccc1)c1ccccc1 [compound 80] | – | – | – | – | – | – | – | – | – | 80 | 35 | 40 | 85 | 75 | 65 | 100 | 20 | 55
